The record followed here is patent US20250320193A1, “OXOISOINDOLINYL SUBSTITUTED PIPERIDINEDIONE DERIVATIVE AND USE THEREOF” (GLUETACS THERAPEUTICS (SHANGHAI) CO., LTD., priority 2022, published 2025).

For test [1], the target named is human Cereblon WT GST-tagged protein (Homo sapiens (Human), UniProt Q96SW2). Briefly: CRBN-binding affinity, HTRF (CEREBLON BINDING kit, CISBIO). The settings on record: HTRF inhibitory activity. Summed up:
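HTRF competition format: test compound displaces Thalidomide-Red from GST-tagged human Cereblon WT, detected with a Eu-labelled anti-GST antibody. Percent CRBN binding inhibition was derived from the 620 nm signal, normalized to solvent-control and protein-free blank wells.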

Test [2] concerns CCRF-CEM (human acute lymphoblastic leukemia T-cells). Nature of the test: Tumor cell proliferation inhibition, CCK-8. It counts as cell-based. The settings on record: CCRF-CEM cells, CCK-8, read-out: inhibitory activity (IC50, nM) CCRF-CEM. Summed up: (§1)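 STR-authenticated, mycoplasma-free cells cultured at 37° C with 5% CO2. Compound added 24 h post-seeding, 10 μM top, 5-fold × 10. Viability by CCK-8; IC50 from inhibition curve.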

The next test addresses GSPT1 (Homo sapiens (Human), UniProt P15170+Q96SW2). Briefly: Western blot, substrate protein expression in hPBMC: GSPT1. It counts as cell-based. The note with it: hPBMC, compound 500 nM, 24 hours, Western blot. Summed up: (§2)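 hPBMC, 1×10^6 cells/mL, 24 h compound exposure; RIPA lysis, BCA protein assay, SDS-PAGE, NC membrane immunoblot. Densitometry vs internal control → % protein remaining; degradation % = 100% − remaining; DC50 = conc. at 50% of DMSO band signal.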

A further test has as its target IKZF3 (Homo sapiens (Human), UniProt Q96SW2+Q9UKT9). Nature of the test: Western blot, substrate protein expression in hPBMC: IKZF3. It counts as cell-based. The settings on record: hPBMC, compound 500 nM, 24 hours, Western blot. In a few lines:
as §2

The test system of test [3] is Jurkat cells (human T-cell leukemia cells). Briefly: Tumor cell proliferation inhibition, CCK-8. It counts as cell-based. The settings on record: Jurkat cells, CCK-8, read-out: inhibitory activity (IC50, nM) Jurkat. In a few lines:
as §1

Test [4] relates to CAL-62 (human thyroid carcinoma cells). Briefly: Tumor cell proliferation inhibition, CCK-8. It counts as cell-based. The settings on record: CAL-62 cells, CCK-8, read-out: inhibitory activity (IC50, nM) CAL-62. In a few lines:
as §1

The test system of test [5] is MM.1S cells (human multiple myeloma cells). Nature of the test: Tumor cell proliferation inhibition, CCK-8. It counts as cell-based. The note with it: MM1.S, MM.1S cells, CCK-8, read-out: inhibitory activity (IC50, nM) MM.1S. Summed up: as §1
Test [6] concerns TMD8 cells (human diffuse large B-cell lymphoma cells). Nature of the test: Tumor cell proliferation inhibition, CCK-8. It counts as cell-based. The settings on record: TMD8 cells, CCK-8, read-out: inhibitory activity (IC50, nM) TMD8. Summed up: as §1
In another test the target is IKZF1 (Homo sapiens (Human), UniProt Q13422+Q96SW2). Briefly: Western blot, substrate protein expression in hPBMC: IKZF1. It counts as cell-based. The settings on record: hPBMC, compound 500 nM, 24 hours, Western blot. Summed up: as §2
Chain of IKZF1 (Q13422 whole entry): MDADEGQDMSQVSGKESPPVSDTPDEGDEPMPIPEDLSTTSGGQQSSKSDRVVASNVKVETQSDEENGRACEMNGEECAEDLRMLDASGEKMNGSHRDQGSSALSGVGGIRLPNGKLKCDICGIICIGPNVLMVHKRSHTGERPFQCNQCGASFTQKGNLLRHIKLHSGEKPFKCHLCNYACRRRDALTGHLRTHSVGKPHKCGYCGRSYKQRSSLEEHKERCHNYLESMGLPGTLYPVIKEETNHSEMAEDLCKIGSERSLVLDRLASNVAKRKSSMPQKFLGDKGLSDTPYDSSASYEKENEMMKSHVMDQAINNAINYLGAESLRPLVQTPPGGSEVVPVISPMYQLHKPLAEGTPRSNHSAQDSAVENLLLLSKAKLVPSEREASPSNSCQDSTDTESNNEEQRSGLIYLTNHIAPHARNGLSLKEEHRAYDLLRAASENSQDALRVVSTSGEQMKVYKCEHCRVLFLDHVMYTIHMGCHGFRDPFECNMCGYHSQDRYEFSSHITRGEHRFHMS
Chain of IKZF1 (Q96SW2 whole entry): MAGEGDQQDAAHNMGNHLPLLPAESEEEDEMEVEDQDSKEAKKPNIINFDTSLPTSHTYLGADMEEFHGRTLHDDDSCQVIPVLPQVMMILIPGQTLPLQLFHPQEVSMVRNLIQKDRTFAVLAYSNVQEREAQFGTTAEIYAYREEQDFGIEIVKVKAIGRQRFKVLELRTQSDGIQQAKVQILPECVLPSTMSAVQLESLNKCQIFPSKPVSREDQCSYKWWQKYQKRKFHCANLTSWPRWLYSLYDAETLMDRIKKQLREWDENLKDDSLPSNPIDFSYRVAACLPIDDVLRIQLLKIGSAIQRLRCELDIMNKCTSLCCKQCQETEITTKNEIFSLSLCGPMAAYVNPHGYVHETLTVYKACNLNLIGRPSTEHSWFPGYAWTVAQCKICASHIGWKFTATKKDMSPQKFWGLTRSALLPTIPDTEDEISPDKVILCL
Chain of IKZF1 (Q16531 whole entry partner): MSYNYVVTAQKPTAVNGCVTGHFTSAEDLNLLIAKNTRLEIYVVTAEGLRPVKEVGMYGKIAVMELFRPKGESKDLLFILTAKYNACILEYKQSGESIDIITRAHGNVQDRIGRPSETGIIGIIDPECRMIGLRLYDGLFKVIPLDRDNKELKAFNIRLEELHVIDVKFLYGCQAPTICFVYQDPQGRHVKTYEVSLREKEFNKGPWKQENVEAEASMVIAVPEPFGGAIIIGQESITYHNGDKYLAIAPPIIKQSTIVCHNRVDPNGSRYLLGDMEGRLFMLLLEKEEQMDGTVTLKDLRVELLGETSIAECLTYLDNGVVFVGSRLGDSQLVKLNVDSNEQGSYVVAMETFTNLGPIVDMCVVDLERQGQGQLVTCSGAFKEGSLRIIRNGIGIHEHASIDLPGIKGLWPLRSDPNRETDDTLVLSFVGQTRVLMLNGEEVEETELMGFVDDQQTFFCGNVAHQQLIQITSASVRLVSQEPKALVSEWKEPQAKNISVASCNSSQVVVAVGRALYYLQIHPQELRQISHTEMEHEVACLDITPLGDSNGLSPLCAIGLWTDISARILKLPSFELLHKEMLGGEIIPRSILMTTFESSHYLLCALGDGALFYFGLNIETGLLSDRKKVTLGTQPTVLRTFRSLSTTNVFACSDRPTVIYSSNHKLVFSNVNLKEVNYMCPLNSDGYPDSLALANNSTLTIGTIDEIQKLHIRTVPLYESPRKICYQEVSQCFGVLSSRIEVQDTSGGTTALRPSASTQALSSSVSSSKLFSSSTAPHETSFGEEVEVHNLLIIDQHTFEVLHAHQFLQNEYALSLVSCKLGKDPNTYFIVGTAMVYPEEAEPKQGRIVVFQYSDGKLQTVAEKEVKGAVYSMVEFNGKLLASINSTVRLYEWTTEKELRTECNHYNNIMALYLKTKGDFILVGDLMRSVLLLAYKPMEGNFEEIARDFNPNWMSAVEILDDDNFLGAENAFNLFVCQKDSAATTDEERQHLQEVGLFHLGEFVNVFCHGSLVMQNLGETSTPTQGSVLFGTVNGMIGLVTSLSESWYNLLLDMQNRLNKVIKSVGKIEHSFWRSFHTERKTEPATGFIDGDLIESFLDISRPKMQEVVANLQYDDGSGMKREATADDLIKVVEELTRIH
In test [7] the test system is MDA-MB-231 cells (human breast adenocarcinoma cells). Nature of the test: Tumor cell proliferation inhibition, CCK-8. It counts as cell-based. The settings on record: MDA-MB-231 cells, CCK-8, read-out: inhibitory activity (IC50, nM) MDA-MB-231. Summed up: as §1
For test [8], the system named is H146 cells (human small cell lung carcinoma cells). Nature of the test: Tumor cell proliferation inhibition, CCK-8. It counts as cell-based. The note with it: NCI-H146, H146 cells, CCK-8, read-out: inhibitory activity (IC50, nM) H146. Summed up: as §1

One may read the pIC50 as −log10 of the IC50, conventionally taken in molar units. A high value points to a low IC50. Usually IC50 stands for the point on the concentration scale where inhibition reaches its midpoint.

pIC50: −log10 of the molar value.

Chain of human Cereblon WT GST-tagged protein (Q96SW2 whole entry): as the sequence (Q96SW2 whole entry) above
Chain of GSPT1 (P15170 whole entry): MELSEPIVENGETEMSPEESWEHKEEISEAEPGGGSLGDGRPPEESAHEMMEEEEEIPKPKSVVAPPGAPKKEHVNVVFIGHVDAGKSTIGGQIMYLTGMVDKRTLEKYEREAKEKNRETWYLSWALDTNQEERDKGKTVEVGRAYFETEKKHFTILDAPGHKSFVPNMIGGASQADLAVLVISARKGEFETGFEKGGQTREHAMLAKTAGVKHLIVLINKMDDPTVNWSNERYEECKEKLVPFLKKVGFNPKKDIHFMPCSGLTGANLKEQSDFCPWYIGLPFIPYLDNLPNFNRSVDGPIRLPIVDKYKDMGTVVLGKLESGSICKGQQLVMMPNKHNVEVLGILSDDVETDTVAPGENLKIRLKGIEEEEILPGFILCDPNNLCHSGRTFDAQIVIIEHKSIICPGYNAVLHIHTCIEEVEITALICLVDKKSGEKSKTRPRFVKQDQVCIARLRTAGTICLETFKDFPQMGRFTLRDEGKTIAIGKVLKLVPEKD
Chain of GSPT1 (Q96SW2 whole entry): as the sequence (Q96SW2 whole entry) above
Chain of GSPT1 (Q16531 whole entry partner): as the sequence (Q16531 whole entry partner) above
Chain of IKZF3 (Q9UKT9 whole entry): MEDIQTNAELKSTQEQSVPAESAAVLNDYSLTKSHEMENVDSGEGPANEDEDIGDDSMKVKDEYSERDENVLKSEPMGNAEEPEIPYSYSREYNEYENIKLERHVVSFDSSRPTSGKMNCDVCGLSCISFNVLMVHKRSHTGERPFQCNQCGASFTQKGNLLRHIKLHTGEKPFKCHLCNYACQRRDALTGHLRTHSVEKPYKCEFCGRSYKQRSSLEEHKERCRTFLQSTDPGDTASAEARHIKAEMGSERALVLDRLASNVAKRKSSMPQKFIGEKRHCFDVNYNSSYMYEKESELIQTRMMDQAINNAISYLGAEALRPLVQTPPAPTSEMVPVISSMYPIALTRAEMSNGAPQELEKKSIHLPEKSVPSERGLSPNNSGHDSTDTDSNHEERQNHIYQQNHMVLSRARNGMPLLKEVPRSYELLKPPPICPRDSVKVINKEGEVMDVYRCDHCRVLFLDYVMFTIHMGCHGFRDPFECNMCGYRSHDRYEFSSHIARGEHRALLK
Chain of IKZF3 (Q96SW2 whole entry): as the sequence (Q96SW2 whole entry) above
Chain of IKZF3 (Q16531 whole entry partner): as the sequence (Q16531 whole entry partner) above

In test [1], `O=C1CCC(N2Cc3cc(CN4C5CCC4CN(C(c4ccccc4)c4ccccc4)C5)cc(F)c3C2=O)C(=O)N1` (stereo not shown) [GT-03840, 3-(5-((3-benzhydryl-3,8-diazabicyclo[3.2.1]octan-8-yl)methyl)-7-fluoro-1-oxoisoindolin-2-yl)piperidine-2,6-dione] had a pIC50 of 5.72 to 6.00. Further, in test [2], the IC50 fell in the range of 10 to 50 nM.
In the case of `O=C1CCC(N2Cc3cc(CN4CCN(C(c5ccccc5)c5ccncc5)CC4)ccc3C2=O)C(=O)N1` (stereo not shown) [GT-04205, 3-(1-oxo-5-((4-(phenyl(pyridin-4-yl)methyl)piperazin-1-yl)methyl)isoindolin-2-yl)piperidine-2,6-dione], the “substrate protein remaining % GSPT1” value at GSPT1 is “A (A represents 0% ≤ substrate protein remaining % ≤ 50%)”. The pIC50 in test [1] is above 6.30. At IKZF3, the “substrate protein remaining % IKZF3” value is recorded as “A (A represents 0% ≤ substrate protein remaining % ≤ 50%)”. The half-inhibitory concentration (IC50) lay within 500 to 1000 nM in [3]; 10 to 50 nM in test [4]; 100 to 500 nM in [5]; 50 to 100 nM in test [6]; 50 to 100 nM in [2]. The “substrate protein remaining % IKZF1” value at IKZF1 is “A (A represents 0% ≤ substrate protein remaining % ≤ 50%)”.
Turning to `O=C1CCC(N2Cc3cc(CN4CCC(N(c5ccccc5)c5ccccc5)CC4)ccc3C2=O)C(=O)N1` (stereo not shown) [GT-04225, 3-(5-((4-(diphenylamino)piperidin-1-yl)methyl)-1-oxoisoindolin-2-yl)piperidine-2,6-dione], the “substrate protein remaining % GSPT1” value on GSPT1 is on record as “A (A represents 0% ≤ substrate protein remaining % ≤ 50%)”. In test [1], this molecule gave a pIC50 above 6.30. Besides, the “substrate protein remaining % IKZF3” value on IKZF3 is reported as “A (A represents 0% ≤ substrate protein remaining % ≤ 50%)”. For the same molecule, the IC50 in [3] was below 1 nM; in test [7] it was 1 to 10 nM; in test [4], below 1 nM; in test [8], 1 to 10 nM; in test [5] it was below 1 nM; in [6], 1 to 10 nM. In addition, the IC50 in [2] is below 1 nM. Besides, the “substrate protein remaining % IKZF1” value on IKZF1 is given as “A (A represents 0% ≤ substrate protein remaining % ≤ 50%)”.
Take `O=C1CCC(N2Cc3c(ccc(CN4CCC(N(c5ccccc5)c5ccccc5)CC4)c3F)C2=O)C(=O)N1` (stereo not shown) [GT-04226, 3-(5-((4-(diphenylamino)piperidin-1-yl)methyl)-4-fluoro-1-oxoisoindolin-2-yl)piperidine-2,6-dione]: the “substrate protein remaining % GSPT1” value at GSPT1 is reported as “A (A represents 0% ≤ substrate protein remaining % ≤ 50%)”. In [1], this molecule had a pIC50 above 6.30. At IKZF3, the “substrate protein remaining % IKZF3” value is on record as “A (A represents 0% ≤ substrate protein remaining % ≤ 50%)”. In addition, the half-inhibitory concentration (IC50) in test [3] is below 1 nM; in test [7], 1 to 10 nM; in test [4] it was below 1 nM; in test [8], 1 to 10 nM; in test [5], below 1 nM; in [6], 1 to 10 nM. Besides, the IC50 in test [2] is below 1 nM. Also, the “substrate protein remaining % IKZF1” value at IKZF1 is listed as “A (A represents 0% ≤ substrate protein remaining % ≤ 50%)”.
With `O=C1CCC(N2Cc3c(ccc(CN4CCN(C(c5ccccc5)c5ccncc5)CC4)c3F)C2=O)C(=O)N1` (stereo not shown) [GT-04247, 3-(4-fluoro-1-oxo-5-((4-(phenyl(pyridin-4-yl)methyl)piperazin-1-yl)methyl)isoindolin-2-yl)piperidine-2,6-dione], the “substrate protein remaining % GSPT1” value on GSPT1 is given as “A (A represents 0% ≤ substrate protein remaining % ≤ 50%)”. This molecule gave a pIC50 in test [1] above 6.30. In addition, the “substrate protein remaining % IKZF3” value at IKZF3 is listed as “A (A represents 0% ≤ substrate protein remaining % ≤ 50%)”. The half-inhibitory concentration (IC50) in test [4] is 50 to 100 nM; in test [5], 100 to 500 nM; in test [2], 50 to 100 nM. The “substrate protein remaining % IKZF1” value at IKZF1 is recorded as “A (A represents 0% ≤ substrate protein remaining % ≤ 50%)”.
Turning to `O=C1CCC(N2Cc3cc(CN4CCN(C(c5ccccc5)c5ccncc5)CC4)c(F)cc3C2=O)C(=O)N1` (stereo not shown) [GT-04248, 3-(6-fluoro-1-oxo-5-((4-(phenyl(pyridin-4-yl)methyl)piperazin-1-yl)methyl)isoindolin-2-yl)piperidine-2,6-dione], the “substrate protein remaining % GSPT1” value on GSPT1 was “A (A represents 0% ≤ substrate protein remaining % ≤ 50%)”. The molecule further had a pIC50 in [1] of 6.00 to 6.30. For the same molecule, on IKZF3, the “substrate protein remaining % IKZF3” value is listed as “B (B represents substrate protein remaining % > 50%)”. In addition, the IC50 in test [3] lay in the range of 50 to 100 nM; in test [7], 100 to 500 nM; in test [4] it was 10 to 50 nM; in test [8], 100 to 500 nM; in test [5], 50 to 100 nM; in test [2] it was 10 to 50 nM. Moreover, at IKZF1, the “substrate protein remaining % IKZF1” value is listed as “A (A represents 0% ≤ substrate protein remaining % ≤ 50%)”.
Consider `O=C1CCC(N2Cc3cc(CN4CCN(C(c5ccccc5)c5cccnc5)CC4)ccc3C2=O)C(=O)N1` (stereo not shown) [GT-04249, 3-(1-oxo-5-((4-(phenyl(pyridin-3-yl)methyl)piperazin-1-yl)methyl)isoindolin-2-yl)piperidine-2,6-dione], for which the “substrate protein remaining % GSPT1” value at GSPT1 is given as “A (A represents 0% ≤ substrate protein remaining % ≤ 50%)”. The molecule also had a pIC50 in test [1] above 6.30. In addition, the “substrate protein remaining % IKZF3” value on IKZF3 is reported as “A (A represents 0% ≤ substrate protein remaining % ≤ 50%)”. Also, the IC50 lay in the range of 10 to 50 nM in test [4], 500 to 1000 nM in test [5], 100 to 500 nM in test [6] and 10 to 50 nM in test [2]. Besides, the “substrate protein remaining % IKZF1” value on IKZF1 is recorded as “A (A represents 0% ≤ substrate protein remaining % ≤ 50%)”.
For the molecule `O=C1CCC(N2Cc3c(ccc(CN4CCN(C(c5ccccc5)c5cccnc5)CC4)c3F)C2=O)C(=O)N1` (stereo not shown) [GT-04250, 3-(4-fluoro-1-oxo-5-((4-(phenyl(pyridin-3-yl)methyl)piperazin-1-yl)methyl)isoindolin-2-yl)piperidine-2,6-dione], the “substrate protein remaining % GSPT1” value on GSPT1 is “A (A represents 0% ≤ substrate protein remaining % ≤ 50%)”. The molecule further had a pIC50 in test [1] above 6.30. For the same molecule, the “substrate protein remaining % IKZF3” value at IKZF3 is “A (A represents 0% ≤ substrate protein remaining % ≤ 50%)”. Further, the 50% inhibitory concentration (IC50) in test [4] was in the range of 50 to 100 nM; in [5], 100 to 500 nM; in test [2] it was 50 to 100 nM. For the same molecule, the “substrate protein remaining % IKZF1” value at IKZF1 was “A (A represents 0% ≤ substrate protein remaining % ≤ 50%)”.
As for `O=C1CCC(N2Cc3cc(C(=O)N4CCN(C(c5cc(F)cc(F)c5)c5cc(F)cc(F)c5)CC4)ccc3C2=O)C(=O)N1` (stereo not shown) [GT-06597, 3-(5-(4-(bis(3,5-difluorophenyl)methyl)piperazine-1-carbonyl)-1-oxoisoindolin-2-yl)piperidine-2,6-dione], the “substrate protein remaining % GSPT1” value on GSPT1 is “A (A represents 0% ≤ substrate protein remaining % ≤ 50%)”. In test [1], this molecule gave a pIC50 of 6.00 to 6.30. Besides, on IKZF3, the “substrate protein remaining % IKZF3” value is “A (A represents 0% ≤ substrate protein remaining % ≤ 50%)”. The half-maximal inhibitory concentration (IC50) was 50 to 100 nM in [7], 10 to 50 nM in test [8], 10 to 50 nM in test [5] and 100 to 500 nM in test [6]. Moreover, on IKZF1, the “substrate protein remaining % IKZF1” value was “A (A represents 0% ≤ substrate protein remaining % ≤ 50%)”.
